Measured values reported in PubChem BioAssay (NCI).
Values joined by “and” are separate entries in the source; they are usually repeats but may differ in a detail not shown here. Equal values may be shown once.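 All cell lines were grown in 96-well plates and treated with compound for 48 hours. GI50: concentration for 50% inhibition of growth. TGI: concentration producing complete growth inhibition.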

What was measured:
Experiment in all cases: NCI anticancer screen, dose series, 48 h
UACC-257 melanoma = tested on: UACC-257 melanoma
MDA-MB-435 = tested on: MDA-MB-435
IGROV1 ovarian = tested on: IGROV1 ovarian
LOX IMVI melanoma = tested on: LOX IMVI melanoma
SK-MEL-5 melanoma = tested on: SK-MEL-5 melanoma
CCRF-CEM leukemia = tested on: CCRF-CEM leukemia
HL-60(TB) leukemia = tested on: HL-60(TB) leukemia
NCI-H226 lung = tested on: NCI-H226 lung
OVCAR-5 ovarian = tested on: OVCAR-5 ovarian
NCI-H522 lung = tested on: NCI-H522 lung
EKVX NSCLC = tested on: EKVX NSCLC
U251 CNS = tested on: U251 CNS
COLO 205 colon = tested on: COLO 205 colon
OVCAR-3 ovarian = tested on: OVCAR-3 ovarian
HOP-92 NSCLC = tested on: HOP-92 NSCLC
SK-MEL-2 melanoma = tested on: SK-MEL-2 melanoma
RXF 393 renal = tested on: RXF 393 renal
MALME-3M melanoma = tested on: MALME-3M melanoma
PC-3 prostate = tested on: PC-3 prostate
SF-539 CNS = tested on: SF-539 CNS
ACHN renal = tested on: ACHN renal
HS 578T breast = tested on: HS 578T breast
CAKI-1 renal = tested on: CAKI-1 renal
NCI-H460 lung = tested on: NCI-H460 lung
KM12 colon = tested on: KM12 colon
SNB-75 CNS = tested on: SNB-75 CNS
NCI-H23 lung = tested on: NCI-H23 lung
NCI/ADR-RES ovarian = tested on: NCI/ADR-RES ovarian
MCF7 breast = tested on: MCF7 breast
SK-OV-3 ovarian = tested on: SK-OV-3 ovarian
UACC-62 melanoma = tested on: UACC-62 melanoma
MOLT-4 leukemia = tested on: MOLT-4 leukemia
SNB-19 CNS = tested on: SNB-19 CNS
SF-268 CNS = tested on: SF-268 CNS
T-47D breast = tested on: T-47D breast
BT-549 breast = tested on: BT-549 breast
MDA-MB-231 breast = tested on: MDA-MB-231 breast
OVCAR-4 ovarian = tested on: OVCAR-4 ovarian
786-0 renal = tested on: 786-0 renal
HCT-116 colon = tested on: HCT-116 colon
DU-145 prostate = tested on: DU-145 prostate
TK-10 renal = tested on: TK-10 renal
HCT-15 colon = tested on: HCT-15 colon
M14 melanoma = tested on: M14 melanoma
RPMI-8226 leukemia = tested on: RPMI-8226 leukemia
HCC-2998 colon = tested on: HCC-2998 colon
UO-31 renal = tested on: UO-31 renal
SF-295 CNS = tested on: SF-295 CNS
K-562 leukemia = tested on: K-562 leukemia
A498 renal = tested on: A498 renal
SN12C renal = tested on: SN12C renal
SR leukemia = tested on: SR leukemia
SW-620 colon = tested on: SW-620 colon
HT29 colon = tested on: HT29 colon
OVCAR-8 ovarian = tested on: OVCAR-8 ovarian
SK-MEL-28 melanoma = tested on: SK-MEL-28 melanoma
A549 NSCLC = tested on: A549 NSCLC
HOP-62 NSCLC = tested on: HOP-62 NSCLC

## Cc1c(CN2CCC(Nc3ncnc4sc(CC(F)(F)F)cc34)CC2)ccc2c1cc(C#N)n2Cc1cn[nH]c1
UACC-257 melanoma
  GI50: 1.37 µM and 5.31 µM
MDA-MB-435
  GI50: 1990 nM and 3780 nM
  TGI: 6.15 µM
IGROV1 ovarian
  GI50: 5.23 µM and 23.8 µM
  TGI: 26.1 µM and > 100 µM
LOX IMVI melanoma
  GI50: 1350 nM and 2360 nM
  TGI: 2.88 µM and 7.5 µM
SK-MEL-5 melanoma
  GI50: 967 nM and 958 nM
  TGI: 2610 nM and 3020 nM
CCRF-CEM leukemia
  GI50: 2980 nM and 2970 nM
  TGI: > 33.7 µM
HL-60(TB) leukemia
  GI50: 2740 nM and 2830 nM
  TGI: 8.87 µM
NCI-H226 lung
  GI50: 7.58 µM and 4.31 µM
  TGI: 40.2 µM and 36.9 µM
OVCAR-5 ovarian
  GI50: 13.2 µM and > 33.4 µM
  TGI: 34.9 µM and > 51 µM
NCI-H522 lung
  GI50: 3.77 µM and 5.24 µM
  TGI: 23.2 µM and > 27.5 µM
EKVX NSCLC
  GI50: 1920 nM and 3080 nM
  TGI: 21.2 µM and > 43.4 µM
U251 CNS
  GI50: 4.65 µM and 3.16 µM
  TGI: 19.6 µM
COLO 205 colon
  GI50: 1640 nM and 2050 nM
  TGI: 3.7 µM and 9.53 µM
OVCAR-3 ovarian
  GI50: 10.4 µM
  TGI: 24 µM
HOP-92 NSCLC
  GI50: 3810 nM and 1090 nM
  TGI: 25.1 µM and > 25.9 µM
SK-MEL-2 melanoma
  GI50: 8.97 µM and 9.33 µM
  TGI: 26.3 µM and 26.5 µM
RXF 393 renal
  GI50: 1940 nM and 2740 nM
  TGI: 12.9 µM and 10.5 µM
MALME-3M melanoma
  GI50: 1310 nM and 2770 nM
  TGI: 2.95 µM and 15.3 µM
PC-3 prostate
  GI50: 2310 nM and 2330 nM
  TGI: 18.9 µM and > 32.7 µM
SF-539 CNS
  GI50: 7.37 µM and 15 µM
  TGI: > 51.4 µM
ACHN renal
  GI50: 4.47 µM and 10.7 µM
  TGI: 19.5 µM and > 38 µM
HS 578T breast
  GI50: 6.23 µM and 10.1 µM
  TGI: > 68.3 µM
CAKI-1 renal
  GI50: 4.43 µM
  TGI: 22.1 µM and > 40.3 µM
NCI-H460 lung
  GI50: 2190 nM and 2800 nM
  TGI: 7.31 µM
KM12 colon
  GI50: 5.36 µM and 3.22 µM
  TGI: 22.2 µM
SNB-75 CNS
  GI50: 8.38 µM and 2.47 µM
  TGI: 26.1 µM and 27.7 µM
NCI-H23 lung
  GI50: 1330 nM and 2230 nM
  TGI: 18.9 µM
NCI/ADR-RES ovarian
  GI50: 4.92 µM and 7.36 µM
  TGI: 20.5 µM and > 25.8 µM
MCF7 breast
  GI50: 1590 nM and 2010 nM
  TGI: 3.75 µM and 8.6 µM
SK-OV-3 ovarian
  GI50: 10 µM and > 24.1 µM
  TGI: > 47.4 µM
UACC-62 melanoma
  GI50: 6.53 µM and 8.73 µM
  TGI: 24.9 µM and > 44.3 µM
MOLT-4 leukemia
  GI50: 1910 nM and 1980 nM
  TGI: 9.55 µM
SNB-19 CNS
  GI50: 6.75 µM and 6.03 µM
  TGI: 28.9 µM
SF-268 CNS
  GI50: 4.48 µM and 5.71 µM
  TGI: 25.5 µM and > 36.5 µM
T-47D breast
  GI50: 897 nM and 1060 nM
  TGI: 16.9 µM
BT-549 breast
  GI50: 2720 nM and 3160 nM
  TGI: 17.5 µM and > 27.4 µM
MDA-MB-231 breast
  GI50: 2.32 µM and 4.04 µM
  TGI: 7.12 µM
OVCAR-4 ovarian
  GI50: 2200 nM and 1770 nM
  TGI: 22.3 µM
786-0 renal
  GI50: 4.92 µM and 4.44 µM
  TGI: 21.9 µM
HCT-116 colon
  GI50: 1120 nM and 1990 nM
  TGI: 2400 nM
DU-145 prostate
  GI50: 10.3 µM
  TGI: 23.9 µM and > 40.5 µM
TK-10 renal
  GI50: 11.6 µM and > 35.2 µM
  TGI: 26.2 µM and > 52.3 µM
HCT-15 colon
  GI50: 2620 nM and 3240 nM
  TGI: 10.3 µM
M14 melanoma
  GI50: 1770 nM and 3490 nM
  TGI: 3.69 µM
RPMI-8226 leukemia
  GI50: 832 nM and 896 nM
  TGI: 4.47 µM
HCC-2998 colon
  GI50: 1860 nM and 2800 nM
  TGI: 4.38 µM and 10.9 µM
UO-31 renal
  GI50: 2250 nM and 2460 nM
  TGI: 20.1 µM and > 41.2 µM
SF-295 CNS
  GI50: 2720 nM and 3060 nM
  TGI: 14.9 µM
K-562 leukemia
  GI50: 883 nM and 1140 nM
  TGI: 4.17 µM and 4.95 µM
A498 renal
  GI50: 7.55 µM
  TGI: 79.4 µM and > 39.1 µM
SN12C renal
  GI50: 8.76 µM
  TGI: 26.4 µM
SR leukemia
  GI50: 571 nM and 1360 nM
  TGI: 3.68 µM and 5.19 µM
SW-620 colon
  GI50: 1810 nM and 2190 nM
  TGI: 4.97 µM
HT29 colon
  GI50: 1750 nM and 2450 nM
  TGI: 5.95 µM
OVCAR-8 ovarian
  GI50: 5.07 µM and 6.1 µM
  TGI: 21.8 µM
SK-MEL-28 melanoma
  GI50: 2.2 µM and 5 µM
  TGI: 6.28 µM
A549 NSCLC
  GI50: 8.31 µM and 10.1 µM
  TGI: 23.3 µM
HOP-62 NSCLC
  GI50: 3.38 µM and 5.46 µM
  TGI: 22 µM and > 44.6 µM
